Reference: PubChem BioAssay (NCI)
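Following 48 hours of exposure in 96-well plates, responses at five concentrations were used to interpolate endpoints linearly. GI50 marks 50% less growth. Definition used: TGI = concentration required for complete inhibition of growth.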

Tests used:
Assay in all cases: NCI anticancer screen, dose series, 48 h
CAKI-1 renal = tested on: CAKI-1 renal
HCC-2998 colon = tested on: HCC-2998 colon
KM12 colon = tested on: KM12 colon
MALME-3M melanoma = tested on: MALME-3M melanoma
MDA-MB-435 = tested on: MDA-MB-435
MOLT-4 leukemia = tested on: MOLT-4 leukemia
OVCAR-4 ovarian = tested on: OVCAR-4 ovarian
SK-OV-3 ovarian = tested on: SK-OV-3 ovarian
TK-10 renal = tested on: TK-10 renal
U251 CNS = tested on: U251 CNS

## Cn1c(COC(=O)NCCn2ccnc2)nc2c(N3CCOCC3)nc(-c3ccccc3)nc21
CAKI-1 renal
  GI50: 0.343 µM
  TGI: 1.55 µM
HCC-2998 colon
  GI50: 1.41 µM
  TGI: 2.9 µM
KM12 colon
  GI50: 1.43 µM
  TGI: 3.06 µM
MALME-3M melanoma
  GI50: 1.38 µM
  TGI: 2.72 µM
MDA-MB-435
  GI50: 0.694 µM
  TGI: 2.08 µM
MOLT-4 leukemia
  GI50: 0.441 µM
  TGI: 2.41 µM
OVCAR-4 ovarian
  GI50: 0.692 µM
  TGI: 1.97 µM
SK-OV-3 ovarian
  GI50: 3.63 µM
  TGI: 10.6 µM
TK-10 renal
  GI50: 1.07 µM
  TGI: 2.41 µM
U251 CNS
  GI50: 1.35 µM
  TGI: 2.87 µM

## CSc1nc(Nc2cccc(NC(=O)CCl)c2)c(C#N)c(-c2cccc([N+](=O)[O-])c2)n1
CAKI-1 renal
  GI50: 2.12 µM
  TGI: 10.4 µM
HCC-2998 colon
  GI50: 2.07 µM
  TGI: 4.37 µM
KM12 colon
  GI50: 1.93 µM
  TGI: 3.92 µM
MALME-3M melanoma
  GI50: 0.191 µM
  TGI: 0.635 µM
MDA-MB-435
  GI50: 2.15 µM
  TGI: 5.16 µM
MOLT-4 leukemia
  GI50: 1.32 µM
  TGI: 6.37 µM
OVCAR-4 ovarian
  GI50: 2.06 µM
  TGI: 6.77 µM
SK-OV-3 ovarian
  GI50: 4.36 µM
  TGI: 17.3 µM
TK-10 renal
  GI50: 4.2 µM
  TGI: 10.9 µM
U251 CNS
  GI50: 1.6 µM
  TGI: 3.13 µM

## COC1=CC(c2ccc[nH]2)=N/C1=C\c1[nH]c(C)c(C(=O)CCCCCCCCC(=O)O[C@H]2CC[C@H]3C4CCc5cc(O)ccc5C4CC[C@]23C)c1C (stereo not given in full)
CAKI-1 renal
  GI50: 1.1 µM
  TGI: > 28.4 µM
HCC-2998 colon
  GI50: 0.623 µM
  TGI: > 50 µM
KM12 colon
  GI50: 0.379 µM
  TGI: > 50 µM
MALME-3M melanoma
  GI50: 2.49 µM
  TGI: > 36.3 µM
MDA-MB-435
  GI50: 0.272 µM
  TGI: > 24.2 µM
MOLT-4 leukemia
  GI50: 0.428 µM
  TGI: > 50 µM
OVCAR-4 ovarian
  GI50: 0.343 µM
  TGI: > 50 µM
SK-OV-3 ovarian
  GI50: 5.02 µM
  TGI: > 50 µM
TK-10 renal
  GI50: 0.861 µM
  TGI: > 50 µM
U251 CNS
  GI50: 0.331 µM
  TGI: > 50 µM

## O=C(Nc1n[nH]c2cc(-c3cc(F)ccc3F)ccc12)C1CC1
CAKI-1 renal
  GI50: > 20.9 µM
  TGI: > 25 µM
HCC-2998 colon
  GI50: 14.4 µM
  TGI: > 25 µM
KM12 colon
  GI50: 8.08 µM
  TGI: > 25 µM
MALME-3M melanoma
  GI50: 14.2 µM
  TGI: > 25 µM
MDA-MB-435
  GI50: 4.56 µM
  TGI: 21.5 µM
MOLT-4 leukemia
  GI50: 14.3 µM
  TGI: > 25 µM
OVCAR-4 ovarian
  GI50: 13.2 µM
  TGI: > 25 µM
SK-OV-3 ovarian
  GI50: 11.1 µM
  TGI: > 25 µM
TK-10 renal
  GI50: > 25 µM
  TGI: > 25 µM
U251 CNS
  GI50: 15.3 µM
  TGI: > 25 µM

## CC(C)(C)C[C@H]1N[C@@H](C(=O)NC2CCC(O)CC2)[C@H](c2cccc(Cl)c2F)[C@@]12C(=O)Nc1cc(Cl)ccc12 (stereo not given in full)
CAKI-1 renal
  GI50: 0.162 µM
  TGI: 12.4 µM
HCC-2998 colon
  GI50: 3.64 µM
  TGI: 13.1 µM
KM12 colon
  GI50: 6.85 µM
  TGI: 22.1 µM
MALME-3M melanoma
  GI50: 0.131 µM
  TGI: 3.98 µM
MDA-MB-435
  GI50: 4.8 µM
  TGI: 16.6 µM
MOLT-4 leukemia
  GI50: 0.314 µM
  TGI: 1.81 µM
OVCAR-4 ovarian
  GI50: 5.6 µM
  TGI: 18.7 µM
SK-OV-3 ovarian
  GI50: 11.2 µM
  TGI: 23.8 µM
TK-10 renal
  GI50: 11.9 µM
  TGI: 25 µM
U251 CNS
  GI50: 7.86 µM
  TGI: 21.9 µM

## Cc1cccc(C2NC(=O)c3ccccc3N2)c1 (stereo not given)
CAKI-1 renal
  TGI: > 100 µM
HCC-2998 colon
  TGI: > 100 µM
KM12 colon
  TGI: > 100 µM
MALME-3M melanoma
  TGI: > 100 µM
MDA-MB-435
  TGI: 2.77 µM
MOLT-4 leukemia
  TGI: > 23.9 µM
OVCAR-4 ovarian
  TGI: > 100 µM
SK-OV-3 ovarian
  TGI: > 44.6 µM
TK-10 renal
  TGI: > 100 µM
U251 CNS
  TGI: > 31.6 µM

## CCCCCCCC(=O)OCC/C=C/C1OC1C1OC(=O)/C=C\C=C\C(=O)N(C(C)=O)C(=O)/C=C(/C)CCC2OC2C1OC(=O)NC(C)=O (stereo not given)
CAKI-1 renal
  GI50: 15 µM
  TGI: > 25 µM
HCC-2998 colon
  GI50: 7.35 µM
  TGI: 19.1 µM
KM12 colon
  GI50: 3.88 µM
  TGI: 11.7 µM
MALME-3M melanoma
  GI50: > 25 µM
  TGI: > 25 µM
MDA-MB-435
  GI50: 5.85 µM
  TGI: 24.8 µM
MOLT-4 leukemia
  GI50: 10.1 µM
  TGI: > 25 µM
OVCAR-4 ovarian
  GI50: 7.37 µM
  TGI: > 25 µM
SK-OV-3 ovarian
  GI50: > 25 µM
  TGI: > 25 µM
TK-10 renal
  GI50: 6.91 µM
  TGI: 22.2 µM
U251 CNS
  GI50: 5.54 µM
  TGI: 15 µM

## COc1ccc(-n2cc(-c3ccc(OC)c(OC)c3)[nH]c2=O)cc1
CAKI-1 renal
  GI50: > 100 µM
  TGI: > 100 µM
HCC-2998 colon
  GI50: > 100 µM
  TGI: > 100 µM
KM12 colon
  GI50: > 100 µM
  TGI: > 100 µM
MALME-3M melanoma
  GI50: > 100 µM
  TGI: > 100 µM
MDA-MB-435
  GI50: > 100 µM
  TGI: > 100 µM
MOLT-4 leukemia
  GI50: > 100 µM
  TGI: > 100 µM
OVCAR-4 ovarian
  GI50: > 100 µM
  TGI: > 100 µM
SK-OV-3 ovarian
  GI50: > 100 µM
  TGI: > 100 µM
TK-10 renal
  GI50: > 100 µM
  TGI: > 100 µM
U251 CNS
  GI50: > 100 µM
  TGI: > 100 µM

## Cn1c(I)c(C#C[Si](C)(C)C)c(=O)n(C(=O)c2ccccc2)c1=O
CAKI-1 renal
  GI50: 2.56 µM
  TGI: 6.85 µM
HCC-2998 colon
  GI50: 6.78 µM
  TGI: 21.6 µM
KM12 colon
  GI50: 12.1 µM
  TGI: 27.8 µM
MALME-3M melanoma
  GI50: 2.72 µM
  TGI: 6.63 µM
MDA-MB-435
  GI50: 3.42 µM
  TGI: 13.4 µM
MOLT-4 leukemia
  GI50: 1.25 µM
  TGI: > 21.9 µM
OVCAR-4 ovarian
  GI50: 4.59 µM
  TGI: 15.1 µM
SK-OV-3 ovarian
  GI50: 0.529 µM
  TGI: 21.7 µM
TK-10 renal
  GI50: 3.81 µM
  TGI: 14 µM
U251 CNS
  GI50: 12.5 µM
  TGI: 25 µM

## Cc1ccc(/C(=N/Nc2ccc([N+](=O)[O-])cc2)Sc2cc(Cl)c(C)cc2S(N)(=O)=O)cc1
CAKI-1 renal
  GI50: 1.61 µM
  TGI: 3.27 µM
HCC-2998 colon
  GI50: 1.76 µM
  TGI: 3.66 µM
KM12 colon
  GI50: 1.37 µM
  TGI: 3.18 µM
MALME-3M melanoma
  GI50: 1.91 µM
  TGI: 4.58 µM
MDA-MB-435
  GI50: 1.73 µM
  TGI: 3.89 µM
MOLT-4 leukemia
  GI50: 3.35 µM
  TGI: 12.3 µM
OVCAR-4 ovarian
  GI50: 1.28 µM
  TGI: 3.75 µM
SK-OV-3 ovarian
  GI50: 1.94 µM
  TGI: 4.34 µM
TK-10 renal
  GI50: 1.61 µM
  TGI: 3.38 µM
U251 CNS
  GI50: 4.34 µM
  TGI: 16.7 µM
